Reference: BindingDB's records for patent US8575203 (Boehringer Ingelheim International, 2013)

Biological target: T1, 3-phosphoinositide-dependent protein kinase 1 (Homo sapiens, UniProt O15530)
T1 sequence (O15530 whole entry): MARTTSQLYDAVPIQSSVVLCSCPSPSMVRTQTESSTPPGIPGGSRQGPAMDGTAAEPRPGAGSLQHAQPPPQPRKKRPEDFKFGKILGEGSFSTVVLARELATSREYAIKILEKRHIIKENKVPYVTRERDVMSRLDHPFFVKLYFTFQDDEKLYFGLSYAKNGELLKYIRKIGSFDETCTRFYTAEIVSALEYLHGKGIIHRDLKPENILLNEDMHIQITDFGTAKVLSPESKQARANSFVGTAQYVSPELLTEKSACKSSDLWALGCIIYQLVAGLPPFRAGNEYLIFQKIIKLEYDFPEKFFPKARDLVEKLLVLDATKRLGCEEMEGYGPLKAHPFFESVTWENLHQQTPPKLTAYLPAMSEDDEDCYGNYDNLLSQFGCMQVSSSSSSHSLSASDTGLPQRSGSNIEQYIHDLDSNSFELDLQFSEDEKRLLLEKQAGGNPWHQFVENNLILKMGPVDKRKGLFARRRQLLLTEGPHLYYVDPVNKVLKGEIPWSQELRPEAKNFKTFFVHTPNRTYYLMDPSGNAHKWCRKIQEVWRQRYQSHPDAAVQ
Experiment: Kinase Assay
Description: The activity of the compounds according to the invention on the kinase PDK1 which inhibits the signal transduction pathway is determined in an in vitro kinase assay with recombinantly prepared protein.

IC50: 185 nM
SMILES: CN(C)C(=O)c1cnc2ccc(C#CCNC(=O)c3cncn(Cc4ccc(F)c(F)c4)c3=O)cc2n1 [US8575203, II-70]
